In patent US9464044B2, “Compound having ability to inhibit 11Beta-HSD1 enzyme or pharmaceutically acceptable salt thereof, method for producing same, and pharmaceutical composition containing same as active ingredient” (AHN-GOOK PHARMACEUTICAL CO., LTD., priority 2012, dated 2016):

Molecular target: 11β-HSD1 (Homo sapiens (Human), UniProt P28845)
Test: 11β-HSD1 inhibiting activity, HTRF assay with human microsomal fractions
Format: biochemical
Settings: 160 nM cortisone, 200 μM NADPH, 2 h at 37° C.
Procedure: The inhibiting activity of 11β-HSD1 derived from microsomal fractions was measured using the HTRF assay (62CO2PEB, Cisbio). […] Europium (Eu^3+) cryptate and XL665-conjugated cortisol were then added to each well and incubated for an additional 2 h at room temperature. The Cortisol concentration was calculated u sing a calibration curve. The IC50 values were calculated from dose response curves using GraphPad Prism software.

Sequence of 11β-HSD1 (P28845 whole entry): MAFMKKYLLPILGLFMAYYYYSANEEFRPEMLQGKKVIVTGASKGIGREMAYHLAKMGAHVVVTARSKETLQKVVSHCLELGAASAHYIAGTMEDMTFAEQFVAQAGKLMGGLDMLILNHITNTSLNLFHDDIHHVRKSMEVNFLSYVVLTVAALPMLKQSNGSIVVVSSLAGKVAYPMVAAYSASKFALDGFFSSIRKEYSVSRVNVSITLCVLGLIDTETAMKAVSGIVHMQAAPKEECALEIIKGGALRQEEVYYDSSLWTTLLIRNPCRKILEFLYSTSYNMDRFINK

SMILES	IC50
NC(=O)C12CC3CC(C1)C(NC(=O)C1(CNS(=O)(=O)c4ccco4)CC1)C(C3)C2 (stereo not drawn) [Example 17, E-4-[1-((furan-2-sulfonylamino)methyl)cyclopropanecarboxamido]-adamantan-1-carboxylic acid amide]	0.132 µM
NC(=O)C12CC3CC(C1)C(NC(=O)C1(CNS(=O)(=O)c4ccc(F)cc4C(F)(F)F)CC1)C(C3)C2 (stereo not drawn) [Example 20, E-4-[1-((2-(trifluoromethyl)-4-fluoro-benzenesulfonylamino)methyl)cyclopropanecarboxamido]-adamantan-1-carboxylic acid amide]	0.102 µM
NC(=O)C12CC3CC(C1)C(NC(=O)c1ccccc1NS(=O)(=O)c1ccccc1F)C(C3)C2 (stereo not drawn) [Example 92, E-4-[2-(2-fluoro-benzenesulfonylamino)-benzamido]-adamantan-1-carboxylic acid amide]	0.148 µM
NC(=O)C12CC3CC(C1)C(NC(=O)c1cccc(NS(=O)(=O)c4ccccc4C(F)(F)F)c1)C(C3)C2 (stereo not drawn) [Example 115]	0.0191 µM
CC(C)(CNS(=O)(=O)c1cccc(Cl)c1)C(=O)NC1C2CC3CC1CC(C(N)=O)(C3)C2 (stereo not drawn) [Example 67, E-4-(3-(3-chlorobenzenesulfonylamino)-2,2-dimethylpropanamido)adamantan-1-carboxylic acid amide]	0.0071 µM
NC(=O)C12CC3CC(C1)C(NC(=O)c1cccc(NS(=O)(=O)c4ccccc4C(F)(F)F)c1F)C(C3)C2 (stereo not drawn) [Example 125, E-4-[2-fluoro-3-(2-(trifluoromethyl)benzenesulfonylamino)benzamido]adamantan-1-carboxylic acid amide]	0.0116 µM
Cc1c(Cl)cccc1S(=O)(=O)NCC1(C(=O)NC2C3CC4CC2CC(C(N)=O)(C4)C3)CC1 (stereo not drawn) [Example 5, E-4-[1-((3-chloro-2-methyl-benzenesulfonylamino)methyl)cyclopropanecarboxamido]-adamantan-1-carboxylic acid amide]	0.0027 µM
NC(=O)C12CC3CC(C1)C(NC(=O)C1(CNC(=O)N4CCNc5ccccc54)CC1)C(C3)C2 (stereo not drawn) [Example 146, E-3,4-dihydro-2H-quinoxalin-1-carboxylic acid[1-(5-carbamoyl-adamantan-2-ylcarbamoyl)-cyclopropylmethyl]-amide]	0.128 µM
CN(CC1(C(=O)NC23CC4CC(CC(C4)C2)C3)CC1)S(=O)(=O)c1ccccc1F [Example 31, N-(adamantan-1-yl)-1-((2-fluoro-N-methylbenzenesulfonylamino)methyl)cyclopropanecarboxamido]	0.0012 µM
Cn1nccc1S(=O)(=O)NC1(C(=O)NC2C3CC4CC2CC(C(N)=O)(C4)C3)CC1 (stereo not drawn) [Example 58, E-4-[1-(1-methyl-1H-pyrazole-5-sulfonylamino)cyclopropanecarboxamido]-adamantan-1-carboxylic acid amide]	0.0173 µM
CN(C(C)(C)C(=O)NC1C2CC3CC1CC(C(N)=O)(C3)C2)S(=O)(=O)c1ccccc1F (stereo not drawn) [Example 72, E-4-[2-(2-fluoro-N-methyl-benzenesulfonylamino)-2-methylpropanamido]adamantan-1-carboxylic acid amide]	0.0012 µM
Cc1cc(S(=O)(=O)NCC2(C(=O)NC3C4CC5CC3CC(C(N)=O)(C5)C4)CC2)c(F)cc1Cl (stereo not drawn) [Example 15, E-4-[1-((4-chloro-2-fluoro-5-methyl-benzenesulfonylamino)methyl)cyclopropanecarboxamido]-adamantan-1-carboxylic acid amide]	0.028 µM
O=C(O)CC[C@]12C[C@@H]3C[C@H](C1)[C@@H](NC(=O)C1(CNS(=O)(=O)c4ccccc4F)CC1)[C@@H](C3)C2 [Example 33, E-3-(4-(1((2-fluoro-benzenesulfonylamino)methyl)cyclopropanecarboxamido)adamantan-1-yl)propanoic acid]	0.0015 µM
Cc1cccc(F)c1S(=O)(=O)NCC1(C(=O)NC2C3CC4CC2CC(C(N)=O)(C4)C3)CC1 (stereo not drawn) [Example 10, E-4-[1-((2-fluoro-6-methyl-benzenesulfonylamino)methyl)cyclopropanecarboxamido]-adamantan-1-carboxylic acid amide]	0.0025 µM
NC(=O)C12CC3CC(C1)C(NC(=O)c1cccc(NS(=O)(=O)c4cccc(Cl)c4)c1F)C(C3)C2 (stereo not drawn) [Example 132, E-4-[2-fluoro-3-(3-chlorobenzenesulfonylamino)benzamido]adamantan-1-carboxylic acid amide]	0.148 µM
NC(=O)C12CC3CC(C1)C(NC(=O)C1(CNS(=O)(=O)c4cc(F)cc(F)c4)CC1)C(C3)C2 (stereo not drawn) [Example 9, E-4-[1-((3,5-difluoro-benzenesulfonylamino)methyl)cyclopropanecarboxamido]-adamantan-1-carboxylic acid amide]	0.608 µM
NC(=O)C12CC3CC(C1)C(NC(=O)C1(CNC(=O)N4CCc5ccccc5C4)CC1)C(C3)C2 (stereo not drawn) [Example 140]	0.0978 µM
NC(=O)C12CC3CC(C1)C(NC(=O)c1cccc(NS(=O)(=O)c4ccc(C(F)(F)F)c(Cl)c4)c1)C(C3)C2 (stereo not drawn) [Example 114, E-4-[3-(3-chloro-4-(trifluoromethyl)benzenesulfonylamino)benzamido]adamantan-1-carboxylic acid amide]	0.0307 µM
NC(=O)C12CC3CC(C1)C(NC(=O)C1(NC(=O)c4ccc(C(F)(F)F)cn4)CC1)C(C3)C2 (stereo not drawn) [Example 64]	0.111 µM
NC(=O)C12CC3CC(C1)C(NC(=O)c1cccc(NS(=O)(=O)c4c(Cl)cc(Cl)cc4Cl)c1)C(C3)C2 (stereo not drawn) [Example 117, E-4-[3-(2,4,6-trichloro-benzenesulfonylamino)-benzamido]-adamantan-1-carboxylic acid amide]	0.005 µM
NC(=O)C12CC3CC(C1)C(NC(=O)C1(CNS(=O)(=O)c4cccc(F)c4F)CC1)C(C3)C2 (stereo not drawn) [Example 11, E-4-[1-((2,3-difluoro-benzenesulfonylamino)methyl)cyclopropanecarboxamido]-adamantan-1-carboxylic acid amide]	0.0104 µM
O=C(NC1C2CC3CC1CC(O)(C3)C2)C1(CNS(=O)(=O)c2ccccc2F)CC1 (stereo not drawn) [Example 2, 1-[(2-fluoro-benzenesulfonylamino)methyl]-N-(5-hydroxyadamantan-2-yl)cyclopropanecarboxamide]	0.0266 µM
NC(=O)C12CC3CC(C1)C(NC(=O)c1cccc(NS(=O)(=O)c4ccccc4)c1)C(C3)C2 (stereo not drawn) [Example 105]	0.0427 µM
NC(=O)C12CC3CC(C1)C(NC(=O)c1cccc(NS(=O)(=O)c4ccccc4Cl)c1)C(C3)C2 (stereo not drawn) [Example 106]	0.0048 µM
NC(=O)C12CC3CC(C1)C(NC(=O)c1cccc(NS(=O)(=O)c4cc(F)ccc4F)c1)C(C3)C2 (stereo not drawn) [Example 122, E-4-[3-(2,5-difluoro-benzenesulfonylamino)-benzamido]-adamantan-1-carboxylic acid amide]	0.0151 µM
NC(=O)C12CC3CC(C1)C(NC(=O)C1(CNS(=O)(=O)c4cc(Cl)c(Cl)cc4F)CC1)C(C3)C2 (stereo not drawn) [Example 16, E-4-[1-((4,5-dichloro-2-fluoro-benzenesulfonylamino)methyl)cyclopropanecarboxamido]-adamantan-1-carboxylic acid amide]	0.005 µM
NC(=O)C12CC3CC(C1)C(NC(=O)c1cccc(NS(=O)(=O)c4ccccc4C(F)(F)F)c1)C(C3)C2 (stereo not drawn) [Example 100]	0.0153 µM
